Data from ChEMBL document CHEMBL1201862, “PubChem BioAssay data set” (2004).
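48-hour exposure; five concentrations; linearly interpolated endpoints. At the GI50, growth is halved.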 Calls of active or inactive are those of the source. Rule as the data show it: active = GI50 up to about 1.1 µM and inactive = higher.

Assays:
Assay in all cases: NCI-60 cell line screen, 48 h
786-0 = system: 786-0
A549 = system: A549
ACHN = system: ACHN
BT-549 = system: BT-549
CAKI-1 = system: CAKI-1
CCRF-CEM = system: CCRF-CEM
COLO 205 = system: COLO 205
DU-145 = system: DU-145
EKVX = system: EKVX
HCC 2998 = system: HCC 2998
HCT-116 = system: HCT-116
HCT-15 = system: HCT-15
HL-60 = system: HL-60
HOP-62 = system: HOP-62
HOP-92 = system: HOP-92
HT-29 = system: HT-29
IGROV-1 = system: IGROV-1
K562 = system: K562
KM12 = system: KM12
LOX IMVI = system: LOX IMVI
M14 = system: M14
MCF7 = system: MCF7
MDA-MB-231 = system: MDA-MB-231
MOLT-4 = system: MOLT-4
Malme-3M = system: Malme-3M
NCI-H226 = system: NCI-H226
NCI-H23 = system: NCI-H23
NCI-H460 = system: NCI-H460
NCI-H522 = system: NCI-H522
NCI/ADR-RES = system: NCI/ADR-RES
OVCAR-4 = system: OVCAR-4
OVCAR-5 = system: OVCAR-5
OVCAR-8 = system: OVCAR-8
PC-3 = system: PC-3
RPMI-8226 = system: RPMI-8226
SF-268 = system: SF-268
SF-295 = system: SF-295
SF-539 = system: SF-539
SK-MEL-28 = system: SK-MEL-28
SK-MEL-2 = system: SK-MEL-2
SK-MEL-5 = system: SK-MEL-5
SN12C = system: SN12C
SNB-19 = system: SNB-19
SNB-75 = system: SNB-75
SR = system: SR
SW-620 = system: SW-620
TK-10 = system: TK-10
U-251 = system: U-251
UACC-257 = system: UACC-257

Cc1cc(OC(=O)NCn2cc(-c3ccccc3)nn2)ccc1Cl
GI50 (786-0): > 100 µM (inactive)
GI50 (A549): 95.5 µM (inactive)
GI50 (ACHN): > 100 µM (inactive)
GI50 (BT-549): 68.9 µM (inactive)
GI50 (CAKI-1): 83.2 µM (inactive)
GI50 (CCRF-CEM): 72.8 µM (inactive)
GI50 (COLO 205): > 100 µM (inactive)
GI50 (DU-145): 68.7 µM (inactive)
GI50 (EKVX): > 100 µM (inactive)
GI50 (HCC 2998): 16.3 µM (inactive)
GI50 (HCT-116): 85.7 µM (inactive)
GI50 (HCT-15): 97.9 µM
GI50 (HL-60): 44.3 µM (inactive)
GI50 (HOP-62): 69.3 µM (inactive)
GI50 (HOP-92): 67.1 µM (inactive)
GI50 (HT-29): 73.5 µM (inactive)
GI50 (IGROV-1): 37.7 µM (inactive)
GI50 (K562): 76.4 µM (inactive)
GI50 (KM12): > 100 µM (inactive)
GI50 (LOX IMVI): 66.8 µM (inactive)
GI50 (M14): 67.3 µM (inactive)
GI50 (MCF7): > 100 µM (inactive)
GI50 (MDA-MB-231): > 100 µM (inactive)
GI50 (MOLT-4): 28.3 µM (inactive)
GI50 (Malme-3M): 88.1 µM (inactive)
GI50 (NCI-H226): > 100 µM (inactive)
GI50 (NCI-H23): 96.6 µM (inactive)
GI50 (NCI-H460): 67.6 µM (inactive)
GI50 (NCI-H522): 54.2 µM (inactive)
GI50 (NCI/ADR-RES): 83.4 µM (inactive)
GI50 (OVCAR-4): 78.7 µM (inactive)
GI50 (OVCAR-5): > 100 µM (inactive)
GI50 (OVCAR-8): 92.7 µM (inactive)
GI50 (PC-3): > 100 µM (inactive)
GI50 (RPMI-8226): 78.2 µM (inactive)
GI50 (SF-268): 48.4 µM (inactive)
GI50 (SF-295): > 100 µM (inactive)
GI50 (SF-539): 54.2 µM (inactive)
GI50 (SK-MEL-28): > 100 µM (inactive)
GI50 (SK-MEL-2): 48.3 µM (inactive)
GI50 (SK-MEL-5): > 100 µM (inactive)
GI50 (SN12C): > 100 µM (inactive)
GI50 (SNB-19): 91.2 µM (inactive)
GI50 (SNB-75): 29.8 µM (inactive)
GI50 (SR): 83 µM (inactive)
GI50 (SW-620): > 100 µM (inactive)
GI50 (TK-10): > 100 µM (inactive)
GI50 (U-251): > 100 µM (inactive)
GI50 (UACC-257): > 100 µM (inactive)
